# According to article PMC5363699, “Transcriptional, Functional, and Mechanistic Comparisons of Stem Cell–Derived Hepatocytes, HepaRG Cells, and Three-Dimensional Human Hepatocyte Spheroids as Predictive In Vitro Systems for Drug-Induced Liver Injury” (Drug Metabolism and Disposition, 2017):
# Counter-ions that a name gives are not always drawn. Like-named read-outs stand apart in the source and are kept apart here.
# Experiments:
# HepaRG cells = test: cells; assay type: cell-based; details: Homo sapiens; for EC50: read-out: EC50 (viability)
# HepaRG = details: cited from earlier work
# Rat Hepatocytes = system: Rat Hepatocytes; set-up: method as in Schutte et al. (2011); details: published model, acute; ref Schutte et al. (2011); read-out: Sensitivity, Rat Hepatocytes Acute; cited from earlier work
# [1] = 4 g APAP daily for 14 days; ref Watkins et al., 2006; cited from earlier work
# HLC = system: HLC; set-up: method as in Takayama et al. (2013), Tasnim et al. (2016); details: read-out: Sensitivity, HLC Acute, cited from earlier work
# PHH spheroids = test: Viability (cellular ATP, CellTiter-Glo) of 3D PHH spheroids after single or repeated exposure; assay type: cell-based, human; details: for EC50: read-out: EC50 (viability)
# [2] = cited from earlier work; for Cmax: human
# HepG2 = details: cited from earlier work
# hiPS-Hep cells = test: Viability (cellular ATP, CellTiter-Glo) of hiPS-Hep cells after single or repeated exposure; assay type: cell-based; details: Homo sapiens; for EC50: read-out: EC50 (viability); for IC50: read-out: 14-day IC50
# C3A = system: C3A; set-up: method as in Fey and Wrzesinski (2012); details: published spheroid model, acute; ref Fey and Wrzesinski (2012); read-out: Sensitivity, C3A Acute; cited from earlier work
# BSEP = system: BSEP; set-up: method as in Funk et al., 2001; details: ref Funk et al., 2001; read-out: IC50 of BSEP inhibition; cited from earlier work
# [3] = 336 h, HepaRG cells, 14 days repeated exposure, read-out: 14-day IC50
# [4] = published spheroid model, acute, ref Gunness et al. (2013), Mueller et al. (2014), read-out: Sensitivity, HepaRG Acute
# [5] = published spheroid model, acute, ref Takayama et al. (2013), Tasnim et al. (2016)
# [6] = published spheroid model, acute, ref Mueller et al. (2014), Ramaiahgari et al. (2014), Takayama et al. (2013), read-out: Sensitivity, HepG2 Acute
# [7] = published spheroid model, repeated dose 6 days, ref Ramaiahgari et al. (2014), read-out: Sensitivity, HepG2 Repeated Dose (6 Days)
# [8] = 336 h, hiPS-Hep cells, 14 days repeated exposure
Molecule,IC50 (HepaRG cells; [3]) [µM],"EC50 (HepaRG cells; HepaRG, 48 h) [µM]","EC50 (HepaRG cells; HepaRG, 168 h) [µM]","EC50 (HepaRG cells; HepaRG, 336 h) [µM]",IC50 (HepaRG; [4]) [µM],IC50 (HLC; [5]) [µM],"EC50 (PHH spheroids; Homo sapiens, 48 h) [µM]","EC50 (PHH spheroids; Homo sapiens, 168 h) [µM]","EC50 (PHH spheroids; Homo sapiens, 336 h) [µM]",IC50 (HepG2; [6]) [µM],IC50 (HepG2; [7]) [µM],EC50 (hiPS-Hep cells; 48 h) [µM],EC50 (hiPS-Hep cells; 168 h) [µM],EC50 (hiPS-Hep cells; 336 h) [µM],IC50 (hiPS-Hep cells; [8]) [µM],further results
"CC(=O)Nc1ccc(O)cc1 [APAP, acetaminophen]",1310,5920,1590,1310,3000,30000,> 10000,2700,644,24000,9400,> 10000,> 10000,9440,9440,"IC50 (HepaRG cells; read-out: 48-hour IC50, HepaRG cells, acute, 48 hours): 5920 µM; IC50 (Rat Hepatocytes): 40000 µM; healthy volunteers with serum alanine aminotransferase elevations above three times the upper limit [1]: 31%–44%; IC50 (PHH spheroids; Homo sapiens, 336 h, PHH spheroids, 14 days repeated exposure, read-out: 14-day IC50): 644 µM; peak APAP serum level average ([2]; healthy volunteers, 4 g APAP daily for 14 days, ref Watkins et al., 2006): 99.2 µM; APAP plasma concentration for which immediate treatment is stipulated ([2]; patients after acute overdose, depending on additional risk factors, ref Vale and Proudfoot, 1995): 0.7 to 1.3 mM; Cmax ([2]; read-out: Cmax or exposure value (toxic), toxic exposure, ref Vale and Proudfoot, 1995): 700000 nM; IC50 (C3A): 40000 µM"
"CN(C)CCCN1c2ccccc2Sc2ccc(Cl)cc21 [Chlorpromazine, chlorpromazine]",34.1,67,32.4,34.1,98,–,16.6,8.8,4.6,43,–,38.6,23.7,24.4,24.6,"IC50 (HepaRG; published spheroid model, repeated dose 72 h, ref Mueller et al. (2014), read-out: Sensitivity, HepaRG Repeated Dose (72 h)): 43 µM; Cmax ([2]; read-out: human toxic Cmax, toxic exposure, ref Regenthal et al., 1999): 1600 nM"
"Cc1c(C)c2c(c(C)c1O)CCC(C)(COc1ccc(CC3SC(=O)NC3=O)cc1)O2 (stereo not drawn) [Troglitazone, troglitazone]",–,> 100,36.5,34.6,400,50,37.4,4.2,1.5,80 to 150,100,46,33.9,18.7,–,"IC50 (HepaRG cells; HepaRG, 336 h, read-out: 14-day IC50): 34.6 µM; IC50 (PHH spheroids; Homo sapiens, read-out: Sensitivity, PHH Acute): 37.4 µM; Cmax ([2]; read-out: therapeutic Cmax, ref Loi et al., 1999): 2820 nM; IC50 (hiPS-Hep cells; 336 h): 18.7 µM"
"CCOC(=O)CN[C@@H](C(=O)N1CC[C@H]1C(=O)NCc1ccc(/C(N)=N\O)cc1)C1CCCCC1 [Ximelagatran, ximelagatran]",–,> 400,> 400,> 400,–,–,> 400,379,165,–,–,> 400,> 400,> 400,–,–
Cc1c(C)c2c(c(C)c1OS(=O)(=O)O)CCC(C)(COc1ccc(CC3SC(=O)NC3=O)cc1)O2 (stereo not drawn) [troglitazone sulfate],–,–,–,–,–,–,–,–,–,–,–,–,–,–,–,IC50 (BSEP): 0.4 µM
aflatoxin B1,–,–,–,–,–,–,–,–,–,–,–,–,–,–,–,"IC50 (HepaRG; read-out: Sensitivity, HepaRG Acute): 1.6 µM; IC50 (HLC): 7 µM; IC50 (PHH spheroids; read-out: Sensitivity, PHH Acute): 0.4 µM; IC50 (PHH spheroids; read-out: Sensitivity, PHH Repeated Dose (14 Days)): 0.03 µM; exposure levels detected in exposed individuals ([2]; in vivo): 28.5 nM; Cmax ([2]; read-out: Cmax or exposure value (toxic), in vivo): 30 nM; IC50 (HepG2; read-out: Sensitivity, HepG2 Acute): > 200 µM"
